Assay results taken from the NIST ThermoML archive (doi:10.1016/j.jct.2007.01.013).
± gives the expanded uncertainty stated by the source.

Legend:
[1] = Liquid; for mass density: 101.33 kPa; for Normal boiling temperature: Distillation
[2] = refractive index (Na D-line) (dimensionless); conditions: 293.15 K; 101.33 kPa; Liquid; Standard Abbe refractometry

| SMILES | mass density ([1]; 293.15 K) | Normal boiling temperature [1] | refractive index [2] | mass density ([1]; 298 K) |
| --- | --- | --- | --- | --- |
| CCCCOC(=O)c1ccccc1C(=O)OCCCC [dibutyl phthalate] | 1046.54 ± 0.79 kg/m3 | 340.1 ± 0.2 °C | 1.49114 ± 0.0007 |  |
| COC(=O)c1ccccc1C(=O)OC [dimethyl 1,2-benzenedicarboxylate] | 1190.53 ± 1.5 kg/m3 | 283.6 ± 0.2 °C | 1.51384 ± 0.0007 |  |
| CCOC(=O)CC [ethyl propanoate] |  | 99.1 ± 0.2 °C | 1.38394 ± 0.0007 | 884.35 ± 1 kg/m3 |
